From US12018016B2, “Aryl sulfonyl (hydroxy) piperidines as CCR6 inhibitors” (CHEMOCENTRYX, INC., priority 2021, dated 2024)

Target: T1, human CCR6 (Homo sapiens, UniProt P51684)
T1 construct: expressed in transfected cells; host or cells: Ba/F3 cells (mouse pro-B line)
T1 sequence (P51684 1-374): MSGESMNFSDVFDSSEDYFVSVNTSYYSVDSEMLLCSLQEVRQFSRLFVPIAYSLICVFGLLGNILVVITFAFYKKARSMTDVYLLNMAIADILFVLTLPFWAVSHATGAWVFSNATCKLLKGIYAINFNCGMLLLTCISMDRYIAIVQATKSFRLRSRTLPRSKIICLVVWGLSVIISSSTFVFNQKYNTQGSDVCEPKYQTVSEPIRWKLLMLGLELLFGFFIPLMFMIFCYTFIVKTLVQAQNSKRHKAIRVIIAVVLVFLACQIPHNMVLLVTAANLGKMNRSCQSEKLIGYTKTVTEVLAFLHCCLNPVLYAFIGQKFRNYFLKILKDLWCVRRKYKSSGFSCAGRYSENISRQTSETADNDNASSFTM
Test: Migration assay (chemotaxis, ChemoTX)
Assay type: cell-based
Settings: hCCR6-transfected Ba/F3 cells in human serum, migration to recombinant human CCL20 10 nM, 37° C. 45 minutes; read-out: Potency (IC50 value in the migration assay)
In short: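 Ba/F3 cells transfected with human CCR6 and butyrate-primed for 24 h were suspended at 4 million/ml in human serum with compound, serially diluted from a 1 μM final top concentration. Cells migrated through a 5-μm polycarbonate membrane toward 10 nM human CCL20 for 45 min at 37 °C. Migrated cells were quantified by CyQUANT fluorescence.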

N#Cc1c[nH]c2ncc(-c3ccc(S(=O)(=O)N4CC[C@@H](Nc5ccc(C(F)(F)F)cn5)[C@@H](O)C4)cc3)cc12 [Example 61, 5-(4-(((3S,4R)-3-hydroxy-4-((5-(trifluoromethyl)pyridin-2-yl)amino)piperidin-1-yl)sulfonyl)phenyl)-1H-pyrrolo[2,3-b]pyridine-3-carbonitrile] was tested. Which IC50 did it give?
The IC50 was < 1 nM.

With COc1cc(-c2ccc(S(=O)(=O)N3CC[C@@H](Nc4ccc(C(F)(F)F)cn4)[C@@H](O)C3)cc2)cc2cn[nH]c(=O)c12 [Compound 79, 6-(4-(((3S,4R)-3-hydroxy-4-((5-(trifluoromethyl)pyridin-2-yl)amino)piperidin-1-yl)sulfonyl)phenyl)-8-methoxyphthalazin-1(2H)-one] as the compound, how does the IC50 read?
Its IC50 is < 1 nM.

How did the IC50 turn out when COc1cc(-c2ccc(S(=O)(=O)N3CC[C@@H](Nc4ccc(C(F)(F)F)cn4)[C@@H](O)C3)cc2)cc2c(C#N)n[nH]c12 [Compound 122] was run?
The IC50 was < 1 nM.

Which IC50 does the source give for Nc1n[nH]c2ccc(-c3ccc(S(=O)(=O)N4CC[C@@H](Nc5ccc(C(F)(F)F)cn5)[C@@H](O)C4)cc3)cc12 [Example 1, (3S,4R)-1-((4-(3-amino-1H-indazol-5-yl)phenyl)sulfonyl)-4-((5-(trifluoromethyl)pyridin-2-yl)amino)piperidin-3-ol] here?
Its IC50 is < 1 nM.

Which IC50 does the source give for O=S(=O)(c1ccc(-c2ccnc(N3CC[C@@H](O)C3)c2)cc1)N1CC[C@@H](Nc2ccc(C(F)(F)F)cn2)[C@@H](O)C1 [Compound 134] here?
The IC50 was < 1 nM.

How did the IC50 turn out when O=S(=O)(c1ccc(-c2ccnc(-c3nnco3)c2)cc1)N1CC[C@@H](Nc2ccc(C(F)(F)F)cn2)[C@@H](O)C1 [Compound 68, (3S,4R)-1-((4-(2-(1,3,4-oxadiazol-2-yl)pyridin-4-yl)phenyl)sulfonyl)-4-((5-(trifluoromethyl)pyridin-2-yl)amino)piperidin-3-ol] was run?
The IC50 was < 1 nM.

How did the IC50 turn out when Nc1cc(-c2ccc(S(=O)(=O)N3CC[C@@H](Nc4ccc(C(F)(F)F)cn4)[C@@H](O)C3)cc2)ccn1 [Compound 126] was run?
Its IC50 is 1 to 10 nM.

With Cc1cc(C(F)(F)F)cnc1N[C@@H]1CCN(S(=O)(=O)c2ccc(-c3cnc(C(N)=O)n3C)cc2)C[C@@H]1O [Compound 83, 5-[4-[[(3S,4R)-3-hydroxy-4-[[3-methyl-5-(trifluoromethyl)-2-pyridyl]amino]-1-piperidyl]sulfonyl]phenyl]-1-methyl-imidazole-2-carboxamide] as the compound, how does the IC50 read?
The IC50 was < 1 nM.

CN1CC2(C1)CN(c1cc(-c3ccc(S(=O)(=O)N4CC[C@@H](Nc5ccc(C(F)(F)F)cn5)[C@@H](O)C4)cc3)ccn1)C2 [Compound 142] was tested. Which IC50 did it give?
Its IC50 is 1 to 10 nM.

How did the IC50 turn out when COc1c(-c2ccc(S(=O)(=O)N3CC[C@@H](Nc4ccc(C(F)(F)F)cn4)[C@@H](O)C3)cc2)ccnc1C [Compound 157] was run?
Its IC50 is < 1 nM.

How did the IC50 turn out when NC(=O)c1ccc(-c2ccc(S(=O)(=O)N3CC[C@@H](Nc4ccc(C(F)(F)F)cn4)[C@@H](O)C3)cc2)cn1 [Example 28, 5-(4-(((3S,4R)-3-Hydroxy-4-((5-(trifluoromethyl)pyridin-2-yl)amino)piperidin-1-yl)sulfonyl)phenyl)picolinamide] was run?
The IC50 was < 1 nM.

Which IC50 does the source give for N[C@H]1C[C@H](Nc2cc(-c3ccc(S(=O)(=O)N4CC[C@@H](Nc5ccc(C(F)(F)F)cn5)[C@@H](O)C4)cc3)ccn2)C1 [Compound 128] here?
Its IC50 is < 1 nM.

Cc1cncc(C)c1-c1ccc(S(=O)(=O)N2CC[C@@H](Nc3ccc(C(F)(F)F)cn3)[C@@H](O)C2)cc1 [Compound 185] was tested. Which IC50 did it give?
The IC50 was < 1 nM.

For O=C(NCCO)c1cc(-c2ccc(S(=O)(=O)N3CC[C@@H](Nc4ccc(C(F)(F)F)cn4)[C@@H](O)C3)cc2)ccn1 [Example 41], which IC50 is on record?
The IC50 was < 1 nM.

For O=S(=O)(c1ccc(-c2ccnc(N3CCC3)c2)cc1)N1CC[C@@H](Nc2ccc(C(F)(F)F)cn2)[C@@H](O)C1 [Compound 139], which IC50 is on record?
Its IC50 is < 1 nM.

For O=C1Nc2ncc(-c3ccc(S(=O)(=O)N4CC[C@@H](Nc5ccc(C(F)(F)F)cn5)[C@@H](O)C4)cc3)cc2C12CCC2 [Compound 159], which IC50 is on record?
Its IC50 is < 1 nM.
